Experimental data reported in US20140171417A1, “TRICYCLIC COMPOUNDS” (NOVARTIS AG, priority 2012, published 2014).

Target: T1, CFTR (Homo sapiens, UniProt P13569)
T1 construct: expressed in transfected cells
Experiment: IonWorks Quattro assay (CFTR Inhibitor Assay), whole-cell planar patch clamp
Assay type: cell-based
Settings: inward current (−100 mV); CHO cells stably expressing WT-CFTR; CFTR activated by 10 μM forskolin; test compound incubated 10 min
From the text: CFTR activity can be quantified by electrophysiology methods, using the whole-cell configuration of the patch clamp technique (Hamill O, Marty A, Neher E, Sakmann B and Sigworth F. ‘Improved patch-clamp techniques for high resolution current recording from cells and cell-free membrane patches.’ Pflugers Archive 1981 391: 85-100). This assay directly measures the currents associated with chloride flow through CFTR channels whilst either maintaining or adjusting the transmembrane voltage. This assay can use either single glass micropipettes or parallel planar arrays to measure CFTR activity from native or recombinant cell systems. Currents measured using parallel planar arrays can be quantified using an appropriately equipped instrument such as the IonWorks Quattro (Molecular Devices Corporation, Sunnyvale, Calif.). The Quattro system can measure CFTR currents from either a single cell per recording well (HT configuration) or alternatively from a population of 64 cells per well (Population Patch Clamp PPC) (Finkel A, Wittel A, Yang N, Handran S, Hughes J, Costantin J. ‘Population patch clamp improves data consistency and success rates in the measurement of ionic currents.’ J Biomol Screen. 2006 August; 11 (5):488-96).
Chinese hamster ovary (CHO) cells stably expressing WT-CFTR channels were used for the IonWorks Quattro experiments. Cells were maintained at 37° C. in 5% v/v CO2 at 100% humidity in MEM alpha medium supplemented with 10% (v/v) FCS, 100 U/mL Penicillin/Streptomycin, and 100 μg/L methotrexate. For experiments, cells were grown in 225 cm^2 tissue culture flasks until almost confluent. Cells were removed from the flask using trypsin-EDTA and resuspended in extracellular recording solution for immediate experimentation.
Cells, at a density of 1.5-2 million per mL, were placed on the Quattro system, added to the planar patch plate and seals allowed to establish for 5-10 mins. After assessing seal resistances (typically >50 MΩ), whole-cell access was obtained by perforation with 100 μg/mL amphotericin B. Baseline currents were measured by a pre-compound scan obtained by application of a voltage ramp from −100 to +100 mV. CFTR was activated by the addition of 10 μM forskolin to each of the 384 wells of the patch plate. After 5 min incubation the post-compound 1 currents were measured, again by application of a voltage ramp from −100 to +100 mV. Test compounds, diluted from 10 mM stocks in DMSO in extracellular solution were then added to the patch plate and were incubated for a further 10 min. The post-compound 2 currents were measured by the application of the same voltage ramp from −100 to +100 mV. The inhibition of CFTR was determined from the difference in current between the forskolin addition (post-compound 1) and the test compound (post-compound 2). This was determined at both −100 mV and +100 mV which represents the inward and outward current respectively.
Extracellular solution (ECS): 145 mM NaCl, 4 mM CsCl, 5 mM D-glucose, 10 mM TES, 1 mM CaCl2, 1 mM MgCl2, pH 7.4 NaOH
Intracellular solution (ICS): 113 mM L-Aspartic acid, 113 mM CsOH, 27 mM CsCl, 1 mM NaCl, 1 mM MgCl2, 1 mM EGTA, 10 mM TES. pH 7.2 with CsOH. Filter sterilized before use.

T1 sequence (P13569 whole entry): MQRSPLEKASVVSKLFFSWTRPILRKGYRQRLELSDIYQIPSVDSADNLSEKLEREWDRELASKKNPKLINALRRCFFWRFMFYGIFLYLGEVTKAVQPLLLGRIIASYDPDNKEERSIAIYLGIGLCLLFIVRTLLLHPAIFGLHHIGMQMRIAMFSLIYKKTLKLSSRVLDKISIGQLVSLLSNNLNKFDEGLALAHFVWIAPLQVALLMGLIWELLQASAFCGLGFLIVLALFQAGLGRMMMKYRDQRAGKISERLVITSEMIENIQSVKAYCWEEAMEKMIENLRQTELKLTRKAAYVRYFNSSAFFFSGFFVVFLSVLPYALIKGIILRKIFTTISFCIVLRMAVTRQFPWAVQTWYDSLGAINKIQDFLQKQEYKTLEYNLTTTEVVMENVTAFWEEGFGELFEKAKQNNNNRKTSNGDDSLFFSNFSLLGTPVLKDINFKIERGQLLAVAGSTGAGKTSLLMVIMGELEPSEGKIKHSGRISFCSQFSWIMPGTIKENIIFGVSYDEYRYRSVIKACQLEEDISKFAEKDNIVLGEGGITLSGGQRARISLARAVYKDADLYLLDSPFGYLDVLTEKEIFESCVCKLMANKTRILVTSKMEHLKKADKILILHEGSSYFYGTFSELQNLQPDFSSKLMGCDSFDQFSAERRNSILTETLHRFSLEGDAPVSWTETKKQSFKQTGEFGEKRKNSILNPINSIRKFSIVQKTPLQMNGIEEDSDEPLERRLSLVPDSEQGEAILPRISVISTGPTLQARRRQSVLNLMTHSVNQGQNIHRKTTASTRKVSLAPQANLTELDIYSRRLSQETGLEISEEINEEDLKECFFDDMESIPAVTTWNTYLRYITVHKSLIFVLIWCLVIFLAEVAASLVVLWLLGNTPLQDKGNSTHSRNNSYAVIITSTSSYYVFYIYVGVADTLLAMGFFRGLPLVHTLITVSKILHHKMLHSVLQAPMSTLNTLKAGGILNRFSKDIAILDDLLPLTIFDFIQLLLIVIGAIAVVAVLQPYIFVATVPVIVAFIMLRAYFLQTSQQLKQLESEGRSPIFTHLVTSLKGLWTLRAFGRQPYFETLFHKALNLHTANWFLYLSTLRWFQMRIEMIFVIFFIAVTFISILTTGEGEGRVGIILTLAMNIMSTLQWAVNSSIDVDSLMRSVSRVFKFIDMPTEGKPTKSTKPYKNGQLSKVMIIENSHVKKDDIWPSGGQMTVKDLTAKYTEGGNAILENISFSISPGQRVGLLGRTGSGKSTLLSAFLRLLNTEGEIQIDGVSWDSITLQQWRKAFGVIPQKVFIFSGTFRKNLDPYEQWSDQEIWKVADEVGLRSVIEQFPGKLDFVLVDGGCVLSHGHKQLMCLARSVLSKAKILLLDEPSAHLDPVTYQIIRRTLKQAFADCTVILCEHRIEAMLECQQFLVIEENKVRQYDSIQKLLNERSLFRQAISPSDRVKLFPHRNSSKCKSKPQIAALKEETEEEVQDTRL

Row | Compound | IC50 [µM]
1 | Cn1c(=O)c2c(-c3ccccc3)n3c(c2n(C)c1=O)C(c1cccc(Cl)c1)SCC3 (racemic) [Example 1.6, 10-(3-Chlorophenyl)-1,3-dimethyl-5-phenyl-7,8-dihydro-1H-pyrimido[4′,5′:3,4]pyrrolo[2,1-c][1,4]thiazine-2,4(3H,10H)-dione] | 11.1
2 | Cc1ccc(C2SCCn3c(-c4ccccc4)c4c(=O)n(C)c(=O)n(C)c4c32)s1 (racemic) [Example 1.10, 1,3-Dimethyl-10-(5-methylthiophen-2-yl)-5-phenyl-7,8-dihydro-1H-pyrimido[4′,5′:3,4]pyrrolo[2,1-c][1,4]thiazine-2,4(3H,10H)-dione] | 8.08
3 | Cn1c(=O)c2c(-c3ccccc3)n3c(c2n(C)c1=O)C(c1cccc(F)c1F)CCC3 (racemic) [Example 6.1, 10-(2,3-Difluorophenyl)-1,3-dimethyl-5-phenyl-7,8,9,10-tetrahydropyrimido[4,5-a]indolizine-2,4(1H,3H)-dione] | 27.6
4 | Cn1c(=O)c2c(-c3ccccc3)n3c(c2n(C)c1=O)C(c1cccc(C#N)c1)CCC3 (racemic) [Example 9.2, 3-(1,3-Dimethyl-2,4-dioxo-5-phenyl-1,2,3,4,7,8,9,10-octahydropyrimido[4,5-a]indolizin-10-yl)benzonitrile] | 9.3
5 | Cc1csc(C2CCNn3c(-c4ccccc4)c4c(=O)n(C)c(=O)n(C)c4c32)n1 (racemic) [Example 10.0, 1,3-Dimethyl-10-(4-methylthiazol-2-yl)-5-phenyl-7,8,9,10-tetrahydropyrimido[4′,5′:3,4]pyrrolo[1,2-b]pyridazine-2,4(1H,3H)-dione] | 2.15
6 | Cc1csc(C2CCNn3c(-c4cccc(Cl)c4)c4c(=O)n(C)c(=O)n(C)c4c32)n1 (racemic) [Example 10.2, 5-(3-Chlorophenyl)-1,3-dimethyl-10-(4-methylthiazol-2-yl)-7,8,9,10-tetrahydropyrimido[4′,5′:3,4]pyrrolo[1,2-b]pyridazine-2,4(1H,3H)-dione] | 0.7
7 | Cc1ccc(C2CCn3c(-c4ccccc4)c4c(=O)n(C)c(=O)n(C)c4c32)o1 (racemic) [Example 11.0, 1,3-Dimethyl-9-(5-methylfuran-2-yl)-5-phenyl-8,9-dihydro-1H-pyrimido[4,5-a]pyrrolizine-2,4(3H,7H)-dione] | 9.14
8 | Cn1cnc(-c2c3c(=O)n(C)c(=O)n(C)c3c3n2CCSC3c2ccc(Cl)o2)c1 (racemic) [Example 15.7, 10-(5-Chlorofuran-2-yl)-1,3-dimethyl-5-(1-methyl-1H-imidazol-4-yl)-7,8-dihydro-1H-pyrimido[4′,5′:3,4]pyrrolo[2,1-c][1,4]thiazine-2,4(3H,10H)-dione] | 5.5
9 | Cn1cc(-c2c3c(=O)n(C)c(=O)n(C)c3c3n2CCSC3c2ccc(Cl)o2)cn1 (racemic) [Example 15.8, 10-(5-Chlorofuran-2-yl)-1,3-dimethyl-5-(1-methyl-1H-pyrazol-4-yl)-7,8-dihydro-1H-pyrimido[4′,5′:3,4]pyrrolo[2,1-c][1,4]thiazine-2,4(3H,10H)-dione] | 3.93
10 | Cc1nnc(-c2c3c(=O)n(C)c(=O)n(C)c3c3n2CCSC3c2ccc(Cl)o2)o1 (racemic) [Example 15.9, 10-(5-Chlorofuran-2-yl)-1,3-dimethyl-5-(5-methyl-1,3,4-oxadiazol-2-yl)-7,8-dihydro-1H-pyrimido[4′,5′:3,4]pyrrolo[2,1-c][1,4]thiazine-2,4(3H,10H)-dione] | 1.9
11 | Cc1coc(-c2c3c(=O)n(C)c(=O)n(C)c3c3n2CCSC3c2ccc(Cl)o2)n1 (racemic) [Example 15.10, 10-(5-Chlorofuran-2-yl)-1,3-dimethyl-5-(4-methyloxazol-2-yl)-7,8-dihydro-1H-pyrimido[4′,5′:3,4]pyrrolo[2,1-c][1,4]thiazine-2,4(3H,10H)-dione] | 1.18
12 | Cc1ccc(C2c3c4c(c(-c5cccc(F)c5)n3CCC2(F)F)c(=O)n(C)c(=O)n4C)o1 (racemic) [Example 18, 9,9-Difluoro-5-(3-fluorophenyl)-1,3-dimethyl-10-(5-methylfuran-2-yl)-7,8,9,10-tetrahydropyrimido[4,5-a]indolizine-2,4(1H,3H)-dione] | 0.48
